Test: Cleavage kinetics (stability) of tyrosine based linker derivatives in buffer at pH 4 and pH 7.4, HPLC
Type: physicochemical
Conditions: room temperature; for % cleaved pH 4, 0 h / % cleaved pH 4, 24 h: pH 4 solution/acetonitrile; for % cleaved pH 4, 0 h / % cleaved pH 4, 24 h / % cleaved pH 7.4, 0 h / % cleaved pH 7.4, 6 h / % cleaved pH 7.4, 24 h: HPLC peak area; for % cleaved pH 7.4, 0 h / % cleaved pH 7.4, 6 h / % cleaved pH 7.4, 24 h: pH 7.4 buffer/acetonitrile; for cleavage kinetic (in words): summary of Table 1, pH 4 and pH 7.4, up to 24 h
Excerpt: To illustrate the different kinetics of different linkers, simple derivatives of the tyrosine based molecule were synthesized and the cleavage at different time points in buffer at pH 4 and pH 7.4 were monitored. Based on the exact composition of the tyrosine based linker structure the formation of the cyclic urea with concomittant release of the free tyrosine OH group has different cleavage kinetics. These can be easily measured in vitro and used as predictors for the in vivo kinetics.
For the kinetic studies with regard to the stability of the different linkers 0.3 mg of the dry test compound are dissolved in 0.5 ml acetonitrile. For a better dilution the sample is sonified for about 10 seconds. Then 1.0 ml of the buffer solutions are added and the samples are sonified again.
Chemical composition of the solution/buffer which are used: • pH 4: 1 liter of deionized water was adjusted to pH 4 with 1N hydrochloric acid • pH 7.4: 90 g sodium chloride, 13.61 g potassium dihydrogene phosphate and 83.35 g 1 M sodium hydroxide solution were dissolved in 1 liter of deionized water. This solution was diluted with water at the rate of 1:10.
The test compound concentration is analysed by HPLC every hour during 24 hours at room temperature. The quantity of the test compound is determined by the peak areas.
HPLC method: Agilent 1100 with DAD (G1315B), binary pump (g1312A), autosampler (G1329A), column thermostat (G1330B), Column: Kromasil 100 C18/250 mm×4 mm/5 μm, Column temperature: 30° C., Eluent A: water+5 ml perchloric acid/1, Eluent B: acetonitrile, Gradient: 0-1.0 min 90% A, 10% B; 1.0-20.0 min 10% A, 90% B; 20.0-21.0 min 10% A, 90% B; 21.0-23.0 min 90% A, 10% B; 23.0-25.0 min 90% A, 10% B; Flow rate: 1.5 ml/min, Detection: 210 nm, Injection volume: 10 μl.

Structure (SMILES)	% cleaved pH 4, 0 h	% cleaved pH 4, 24 h	% cleaved pH 7.4, 0 h	% cleaved pH 7.4, 6 h	% cleaved pH 7.4, 24 h	cleavage kinetic (in words)
NC(=O)[C@H](CSC1CC(=O)N(Cc2ccccc2)C1=O)NC(=O)[C@@H](N)CCNC(=O)Oc1ccc(C[C@H](N)C(=O)Nc2ccccc2)cc1 (stereo partly drawn) [Example 1C, O-{[(3S)-3-Amino-4-({(2R)-1-amino-3-[(1-benzyl-2,5-dioxopyrrolidin-3-yl)sulfanyl]-1-oxopropan-2-yl}amino)-4-oxobutyl]carbamoyl}-N-phenyl-L-tyrosinamide]	0%	1%	0%	7%	21%	
NC(=O)[C@H](CSC1CC(=O)N(Cc2ccccc2)C1=O)NC(=O)[C@@H](N)CCCNC(=O)Oc1ccc(C[C@H](N)C(=O)Nc2ccccc2)cc1 (stereo partly shown) [Example 3C]	0%	0%	0%	2%	11%	cleaved slowly
NCCC[C@H](NC(=O)Oc1ccc(C[C@H](N)C(=O)Nc2ccccc2)cc1)C(=O)N[C@@H](CSC1CC(=O)N(Cc2ccccc2)C1=O)C(N)=O (stereo partly shown) [Example 4C]	0%	0%	0%	23%	65%	cleaved quickly
NCC[C@H](NC(=O)Oc1ccc(C[C@H](N)C(=O)Nc2ccccc2)cc1)C(=O)N[C@@H](CSC1CC(=O)N(Cc2ccccc2)C1=O)C(N)=O (stereo partly shown) [Example 5C]	0%	0%	0%	75%	100%	cleaved quickly
N[C@@H](CCNC(=O)Oc1ccc(C[C@H](N)C(=O)Nc2ccccc2)cc1)C(=O)NCCSC1CC(=O)N(Cc2ccccc2)C1=O (stereo partly shown) [Example 6C]	0%	0%	0%	6%	20%	
NC(=O)CNC(=O)[C@H](CSC1CC(=O)N(Cc2ccccc2)C1=O)NC(=O)[C@@H](N)CCNC(=O)Oc1ccc(C[C@H](N)C(=O)Nc2ccccc2)cc1 (stereo partly shown) [Example 7C]	0%	0%	0%	6%	23%	
NC(=O)[C@H](CSC1CC(=O)N(Cc2ccccc2)C1=O)NC(=O)CNC(=O)[C@@H](N)CCNC(=O)Oc1ccc(C[C@H](N)C(=O)Nc2ccccc2)cc1 (stereo partly shown) [Example 8C]	0%	0%	0%	6%	23%	
NC(=O)[C@H](CSC1CC(=O)N(Cc2ccccc2)C1=O)NC(=O)CCCCCNC(=O)[C@@H](N)CCNC(=O)Oc1ccc(C[C@H](N)C(=O)Nc2ccccc2)cc1 (stereo partly shown) [Example 9C]	0%	0%	0%	7%	25%	
N[C@@H](CCNC(=O)Oc1ccc(C[C@H](N)C(=O)Nc2ccccc2)cc1)C(=O)NCCOCCOCCOCCn1cc(-c2ccccc2)nn1 [Example 10Cb, O-{[(14S)-14-Amino-13-oxo-1-(4-phenyl-1H-1,2,3-triazol-1-yl)-3,6,9-trioxa-12-azahexadecan-16-yl]carbamoyl}-N-phenyl-L-tyrosinamide]	0%	0%	0%	4%	14%	cleaved slowly
NC[C@H](NC(=O)Oc1ccc(C[C@H](N)C(=O)Nc2ccccc2)cc1)C(=O)N[C@@H](CSC1CC(=O)N(Cc2ccccc2)C1=O)C(N)=O (stereo partly shown) [Example 11C]	0%	19%	0%	100%	100%	cleaved very quickly, even at pH4
N[C@@H](Cc1ccc(OC(=O)NCC[C@H](N)C(=O)N[C@@H](CSC2CC(=O)N(Cc3ccccc3)C2=O)C(=O)Nc2ccccc2)cc1)C(=O)Nc1ccccc1 (stereo partly shown) [Example 12C]	0%	0%	0%	29%	76%	cleaved quickly
